Assay results as given in patent publication US20230079819A1, “COMPOUNDS AND USES THEREOF” (Foghorn Therapeutics Inc., priority 2019, published 2023).
Read-outs that look alike come from different tables or passages of the source.

Columns and labels:
BRG-1 = biological target: T1, BRG-1 (Homo sapiens, UniProt P51532); test: ATPase catalytic activity of BRG-1, ADP-Glo in vitro biochemical assay; conditions: 30 nM BRG-1, 400 μM ATP
T1 construct: made in house; host or cells: High Five insect cells
T1 sequence (P51532 whole entry): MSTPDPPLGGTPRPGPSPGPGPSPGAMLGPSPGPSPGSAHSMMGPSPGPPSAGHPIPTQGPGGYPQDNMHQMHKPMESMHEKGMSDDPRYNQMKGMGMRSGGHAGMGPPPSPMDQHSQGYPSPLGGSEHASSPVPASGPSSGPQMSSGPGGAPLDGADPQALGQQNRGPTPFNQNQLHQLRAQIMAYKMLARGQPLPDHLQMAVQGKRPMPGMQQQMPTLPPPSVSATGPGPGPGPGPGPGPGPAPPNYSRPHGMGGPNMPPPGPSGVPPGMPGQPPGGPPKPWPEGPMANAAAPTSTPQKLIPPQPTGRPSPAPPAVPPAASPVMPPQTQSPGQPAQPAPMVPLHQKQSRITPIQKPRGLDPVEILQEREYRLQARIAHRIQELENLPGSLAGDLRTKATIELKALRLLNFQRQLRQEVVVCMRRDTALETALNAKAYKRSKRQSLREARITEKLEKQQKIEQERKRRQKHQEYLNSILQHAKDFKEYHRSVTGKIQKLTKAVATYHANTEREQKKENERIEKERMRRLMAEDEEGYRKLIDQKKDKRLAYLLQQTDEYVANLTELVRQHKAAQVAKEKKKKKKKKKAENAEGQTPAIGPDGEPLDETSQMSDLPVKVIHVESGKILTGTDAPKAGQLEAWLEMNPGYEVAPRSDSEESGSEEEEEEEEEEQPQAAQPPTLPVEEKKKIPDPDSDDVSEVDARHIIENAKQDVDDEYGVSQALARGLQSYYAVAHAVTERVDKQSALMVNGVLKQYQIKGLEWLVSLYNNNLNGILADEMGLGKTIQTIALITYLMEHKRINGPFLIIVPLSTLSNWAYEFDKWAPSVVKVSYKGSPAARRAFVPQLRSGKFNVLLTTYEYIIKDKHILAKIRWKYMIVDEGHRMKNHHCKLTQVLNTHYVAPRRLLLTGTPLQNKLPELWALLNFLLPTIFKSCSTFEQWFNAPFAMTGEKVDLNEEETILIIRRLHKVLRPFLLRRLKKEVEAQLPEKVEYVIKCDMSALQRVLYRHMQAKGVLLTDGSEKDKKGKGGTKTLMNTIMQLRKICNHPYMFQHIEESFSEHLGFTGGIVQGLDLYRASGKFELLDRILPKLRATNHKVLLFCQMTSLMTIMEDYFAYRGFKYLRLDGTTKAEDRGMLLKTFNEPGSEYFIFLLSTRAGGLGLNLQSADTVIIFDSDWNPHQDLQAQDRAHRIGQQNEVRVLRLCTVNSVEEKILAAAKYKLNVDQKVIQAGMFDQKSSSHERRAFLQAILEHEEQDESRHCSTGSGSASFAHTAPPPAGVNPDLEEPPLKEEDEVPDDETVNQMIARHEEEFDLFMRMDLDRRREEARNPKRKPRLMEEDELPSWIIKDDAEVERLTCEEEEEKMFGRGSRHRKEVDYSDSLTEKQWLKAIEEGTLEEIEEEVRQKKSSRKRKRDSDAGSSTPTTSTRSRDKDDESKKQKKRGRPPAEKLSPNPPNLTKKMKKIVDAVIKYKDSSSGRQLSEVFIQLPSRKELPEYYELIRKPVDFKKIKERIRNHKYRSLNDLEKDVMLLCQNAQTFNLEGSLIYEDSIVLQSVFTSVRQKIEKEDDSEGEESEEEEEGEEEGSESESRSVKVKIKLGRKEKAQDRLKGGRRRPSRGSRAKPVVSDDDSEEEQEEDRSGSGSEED

BRM = biological target: T2, BRM (Homo sapiens, UniProt P51531); test: ATPase catalytic activity of BRM, ADP-Glo in vitro biochemical assay; conditions: 30 nM BRM, 400 μM ATP
T2 construct: made in house; host or cells: High Five insect cells
T2 sequence (P51531 whole entry): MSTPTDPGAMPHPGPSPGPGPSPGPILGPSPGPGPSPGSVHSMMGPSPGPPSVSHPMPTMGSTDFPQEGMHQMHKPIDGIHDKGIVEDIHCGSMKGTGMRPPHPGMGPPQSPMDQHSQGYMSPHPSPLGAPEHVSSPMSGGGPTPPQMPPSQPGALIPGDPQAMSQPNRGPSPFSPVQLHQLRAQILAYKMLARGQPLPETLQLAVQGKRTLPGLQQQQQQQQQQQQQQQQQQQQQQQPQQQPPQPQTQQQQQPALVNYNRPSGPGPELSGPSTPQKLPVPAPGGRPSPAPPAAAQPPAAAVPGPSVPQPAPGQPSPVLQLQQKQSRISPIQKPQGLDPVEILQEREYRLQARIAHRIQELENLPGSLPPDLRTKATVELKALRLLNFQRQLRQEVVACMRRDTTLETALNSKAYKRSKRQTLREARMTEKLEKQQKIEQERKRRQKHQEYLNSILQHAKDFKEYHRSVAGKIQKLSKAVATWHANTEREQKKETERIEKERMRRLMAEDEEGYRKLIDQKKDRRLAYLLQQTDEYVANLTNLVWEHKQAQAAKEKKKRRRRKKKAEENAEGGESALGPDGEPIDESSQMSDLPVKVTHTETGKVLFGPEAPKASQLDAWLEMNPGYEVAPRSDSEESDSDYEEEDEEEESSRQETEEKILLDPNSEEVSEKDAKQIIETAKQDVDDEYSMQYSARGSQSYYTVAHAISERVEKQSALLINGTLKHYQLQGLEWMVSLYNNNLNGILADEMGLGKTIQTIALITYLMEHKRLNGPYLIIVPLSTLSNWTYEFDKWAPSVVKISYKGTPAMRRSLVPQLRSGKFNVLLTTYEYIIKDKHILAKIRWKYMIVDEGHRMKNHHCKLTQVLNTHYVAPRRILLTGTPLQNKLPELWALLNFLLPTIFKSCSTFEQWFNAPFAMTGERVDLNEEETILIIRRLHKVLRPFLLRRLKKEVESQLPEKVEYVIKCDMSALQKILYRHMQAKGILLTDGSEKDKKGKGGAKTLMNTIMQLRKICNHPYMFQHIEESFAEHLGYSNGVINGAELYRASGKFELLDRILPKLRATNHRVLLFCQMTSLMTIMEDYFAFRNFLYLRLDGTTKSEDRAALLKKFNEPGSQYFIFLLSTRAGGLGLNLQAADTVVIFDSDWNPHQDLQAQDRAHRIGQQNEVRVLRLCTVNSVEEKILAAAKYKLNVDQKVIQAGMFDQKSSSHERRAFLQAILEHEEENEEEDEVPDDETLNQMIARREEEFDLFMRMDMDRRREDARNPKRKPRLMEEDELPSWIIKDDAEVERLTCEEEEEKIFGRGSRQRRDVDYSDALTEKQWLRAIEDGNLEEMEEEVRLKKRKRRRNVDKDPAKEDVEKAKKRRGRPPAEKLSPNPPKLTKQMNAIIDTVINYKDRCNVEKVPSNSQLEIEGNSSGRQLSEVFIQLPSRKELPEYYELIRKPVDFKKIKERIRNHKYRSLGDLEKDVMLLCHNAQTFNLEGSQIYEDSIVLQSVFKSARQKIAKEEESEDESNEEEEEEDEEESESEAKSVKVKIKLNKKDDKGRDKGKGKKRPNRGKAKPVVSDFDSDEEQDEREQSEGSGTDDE

[1] = ATPase catalytic activity, read-out: BRG1 IP50 (μM)*
[2] = ATPase catalytic activity, read-out: BRM IP50 (μM)*
[3] = ATPase catalytic activity, read-out: BRG1 IP50
[4] = ATPase catalytic activity, read-out: BRM IP50

SMILES | IC50 (BRG-1; [1]) | IC50 (BRM; [2]) | IC50 (BRG-1; [3]) | IC50 (BRM; [4]) | other results
C[C@@H]1CN(c2cccc(-c3csc(NC(=O)CNC(=O)c4ccn(C(C)(C)C)c4)n3)c2)C[C@H](C)O1 [Compound 90, 1-(tert-butyl)-N-(2-((4-(3-(cis-2,6-dimethylmorpholino)phenyl)thiazol-2-yl)amino)-2-oxoethyl)-1H-pyrrole-3-carboxamide] | < 0.01 µM | < 0.01 µM | – | – | –
CS(=O)(=O)n1ccc(C(=O)NCC(=O)Nc2nc(-c3cccc(C4COC4)c3)cs2)c1 [Compound 465] | – | – | > 0.01 µM | > 0.01 µM | –
COc1cnc(C(=O)NCC(=O)Nc2nc(-c3cccc(N4C[C@@H](C)O[C@@H](C)C4)n3)cs2)o1 [Compound 824] | – | – | – | – | IC50 (BRG-1; read-out: BRG1 IP50): > 0.1 µM; IC50 (BRM; read-out: BRM IP50): > 0.1 µM
COC(C)(C)C#Cc1cccc(-c2csc(NC(=O)CNC(=O)c3ccn(S(C)(=O)=O)c3)n2)c1 [Compound 363] | > 0.01 µM | > 0.01 µM | – | – | –
CS(=O)(=O)n1ccc(C(=O)NCC(=O)Nc2nc(-c3ccc(F)c(N4CCC4)c3)cs2)c1 [Compound 511] | – | – | < 0.01 µM | < 0.01 µM | –
CS(=O)(=O)n1ccc(C(=O)NCC(=O)Nc2nc(-c3ccc4c(c3)C(F)(F)CC4)cs2)c1 [Compound 720] | – | – | > 0.01 µM | > 0.01 µM | –
COCCN1CCc2ccc(-c3csc(NC(=O)CNC(=O)c4ccn(S(C)(=O)=O)c4)n3)cc21 [Compound 250] | > 0.01 µM | > 0.01 µM | – | – | –
COC[C@H](NC(=O)c1ccn(C2(C#N)CC2)n1)C(=O)Nc1nc(-c2ccc3ccn(C)c(=O)c3c2)cs1 [Compound 812] | – | – | – | – | IC50 (BRG-1; read-out: BRG1 IP50): > 0.1 µM; IC50 (BRM; read-out: BRM IP50): > 0.1 µM
Cc1cncc(-c2cccc(-c3csc(NC(=O)CNC(=O)c4ccn(C5(C)COC5)c4)n3)c2)n1 [Compound 529] | – | – | > 0.01 µM | < 0.01 µM | –
CS(=O)(=O)n1ccc(C(=O)NCC(=O)Nc2nc(-c3cccc(-c4ccn(CC(=O)O)n4)c3)cs2)c1 [Compound 218] | > 0.01 µM | > 0.01 µM | – | – | –
COC[C@H](NC(=O)c1ccn(S(C)(=O)=O)c1)C(=O)Nc1nc(-c2cccc(-c3cc(C)nc(C)c3)c2)cs1 [Compound 61, (S)—N-(1-((4-(3-(2,6-dimethylpyridin-4-yl)phenyl)thiazol-2-yl)amino)-3-methoxy-1-oxopropan-2-yl)-1-(methylsulfonyl)-1H-pyrrole-3-carboxamide] | < 0.01 µM | < 0.01 µM | – | – | –
CN1CCC(OCc2cccc(-c3csc(NC(=O)CNC(=O)c4ccn(C(C)(C)C)c4)n3)c2)C(F)(F)C1 (stereo not shown) [Compound 128, 1-(tert-butyl)-N-(2-((4-(3-(((3,3-difluoro-1-methylpiperidin-4-yl)oxy)methyl)phenyl)thiazol-2-yl)amino)-2-oxoethyl)-1H-pyrrole-3-carboxamide] | > 0.1 µM | > 0.1 µM | – | – | –

Continued, in another order:

IC50 (BRG-1; [1]) | IC50 (BRM; [2]) | IC50 (BRG-1; [3]) | IC50 (BRM; [4]) | SMILES | other results
> 0.1 µM | > 0.1 µM | – | – | CC(C)(Oc1ccncc1)c1cccc(-c2csc(NC(=O)CNC(=O)c3ccn(S(C)(=O)=O)c3)n2)c1 [Compound 102, 1-(methylsulfonyl)-N-(2-oxo-2-((4-(3-(2-(pyridin-4-yloxy)propan-2-yl)phenyl)thiazol-2-yl)amino)ethyl)-1H-pyrrole-3-carboxamide] | –
> 0.01 µM | > 0.01 µM | – | – | CS(=O)(=O)n1ccc(C(=O)NCC(=O)Nc2nc(-c3cccc(COc4ccccc4)c3)cs2)c1 [Compound 104, 1-(methylsulfonyl)-N-(2-oxo-2-((4-(3-(phenoxymethyl)phenyl)thiazol-2-yl)amino)ethyl)-1H-pyrrole-3-carboxamide] | –
> 0.01 µM | > 0.01 µM | – | – | CO[C@H]1CN(c2cccc(-c3csc(NC(=O)CNC(=O)c4ccn(S(C)(=O)=O)c4)n3)c2)C[C@@H]1F [Compound 180] | –
> 0.01 µM | < 0.01 µM | – | – | CN(C)c1cccc(-c2csc(NC(=O)CNC(=O)c3ccn(S(C)(=O)=O)c3)n2)c1 [Compound 287] | –
> 0.01 µM | > 0.01 µM | – | – | C[C@@H]1CN(c2cccc(-c3csc(NC(=O)CNC(=O)c4ccn(C5(C)COC5)c4)n3)c2)C[C@H](C)O1 [Compound 235] | –
> 0.01 µM | > 0.01 µM | – | – | CS(=O)(=O)n1ccc(C(=O)NCC(=O)Nc2nc(-c3cccc(OCF)c3)cs2)c1 [Compound 266] | –
– | – | < 0.01 µM | < 0.01 µM | COC[C@H](NC(=O)c1ccn(C(C)(C)C#N)c1)C(=O)Nc1nc(-c2ccc3ccn(C)c(=O)c3c2)cs1 [Compound 584] | –
– | – | > 0.1 µM | > 0.1 µM | CC(C)(C)n1ccc(C(=O)NCC(=O)Nc2nc(-c3cccc(N4CCN(S(C)(=O)=O)CC4)n3)cs2)c1 [Compound 665] | –
– | – | > 0.01 µM | > 0.01 µM | COC[C@H](NC(=O)c1ccn(S(C)(=O)=O)c1)C(=O)Nc1nc(-c2cccc(C3COC3)c2)cs1 [Compound 466] | –
> 0.1 µM | > 0.01 µM | – | – | C[C@@H]1CN(c2ccc(F)c(-c3csc(NC(=O)CNC(=O)c4ccn(S(C)(=O)=O)c4)n3)c2)C[C@H](C)O1 [Compound 297] | –
> 0.01 µM | > 0.01 µM | – | – | COC[C@@H]1CCCN(c2cccc(-c3csc(NC(=O)CNC(=O)c4ccn(S(C)(=O)=O)c4)n3)c2)C1 [Compound 244] | –
